According to ChEMBL document CHEMBL4808246 (Bioorg Med Chem, 2021):

Experiments:
[1] = system: Mus musculus; test: Analgesic activity in mouse model of acetic-acid induced writhing assessed as number of writhes at 30 mg/kg, po once daily administered for 3 days prior to acetic acid injection measured after 20 mins (reference value: 29.13+/-9.36); assay type: functional; details: time 3 day
[2] = system: RAW264.7; test: Inhibition of LPS induced NO production in mouse RAW264.7 cells at 1 uM in the presence of 500 ng/mL LPS measured after 24 hrs by Griess reagent based assay relative to control; assay type: functional
[3] = system: Mus musculus; test: Antiinflammatory activity in mouse xylene induced ear edema model assessed as inhibition of auricular edemas at 30 mg/kg, po once daily administered for 3 days prior to xylene stimulation and measured after 30 mins relative to control; assay type: functional; details: 72 h, time 3 day
[4] = Selectivity index, ratio of IC50 for ovine COX-1 to IC50 for human COX-2
[5] = biological target: T1, Prostaglandin G/H synthase 1 (Ovis aries, UniProt P05979); test: Inhibition of ovine COX-1 assessed as production of PGE2 using arachidonic acid as a substrate preincubated for 60 mins followed by substrate addition and measured after 2 mins by ELISA analysis
T1 sequence (P05979 whole entry): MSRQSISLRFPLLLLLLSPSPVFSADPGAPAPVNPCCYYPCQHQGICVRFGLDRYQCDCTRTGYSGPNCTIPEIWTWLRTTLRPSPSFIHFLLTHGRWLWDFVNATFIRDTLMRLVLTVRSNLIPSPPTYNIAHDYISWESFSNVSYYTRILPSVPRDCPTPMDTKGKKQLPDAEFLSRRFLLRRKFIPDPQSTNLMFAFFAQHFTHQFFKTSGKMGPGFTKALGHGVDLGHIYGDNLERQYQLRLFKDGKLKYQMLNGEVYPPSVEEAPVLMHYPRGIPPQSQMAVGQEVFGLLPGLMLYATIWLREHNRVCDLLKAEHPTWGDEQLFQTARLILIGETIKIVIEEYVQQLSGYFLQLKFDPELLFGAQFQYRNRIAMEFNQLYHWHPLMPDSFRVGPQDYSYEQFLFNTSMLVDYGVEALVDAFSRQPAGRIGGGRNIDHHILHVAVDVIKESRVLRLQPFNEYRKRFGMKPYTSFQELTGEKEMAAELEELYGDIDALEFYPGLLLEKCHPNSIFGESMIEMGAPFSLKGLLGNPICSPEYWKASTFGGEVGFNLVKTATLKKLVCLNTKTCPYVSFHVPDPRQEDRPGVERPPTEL

[6] = biological target: T2, Prostaglandin G/H synthase 1 (Ovis aries) (UniProt P05979); test: Inhibition of ovine COX-1 assessed as production of PGE2 using arachidonic acid as a substrate preincubated for 60 mins at 0.1 uM followed by substrate addition and measured after 2 mins by ELISA analysis relative to control
T2 sequence (whole entry): T1 sequence (P05979 whole entry)

[7] = system: RAW264.7; test: Inhibition of LPS induced NO production in mouse RAW264.7 cells at 100 uM in the presence of 500 ng/mL LPS measured after 24 hrs by Griess reagent based assay relative to control; assay type: functional
[8] = biological target: T2, Prostaglandin G/H synthase 1 (Ovis aries); test: Inhibition of ovine COX-1 assessed as production of PGE2 using arachidonic acid as a substrate preincubated for 60 mins at 100 uM followed by substrate addition and measured after 2 mins by ELISA analysis relative to control; details: time 62.0 min
[9] = Acute oral toxicity in female kunming mouse assessed as signs of gross toxicity measured once daily for 14 days; details: in vivo, time 14 day
[10] = system: Mus musculus; test: Analgesic activity in mouse model of acetic-acid induced writhing assessed as inhibition of writhing at 30 mg/kg, po once daily administered for 3 days prior to acetic acid injection measured after 20 mins relative to control; assay type: functional; details: 72 h, time 3 day
[11] = system: Mus musculus; test: Antiinflammatory activity in mouse xylene induced ear edema model assessed as ear weight difference at 30 mg/kg, po once daily administered for 3 days prior to xylene stimulation and measured after 30 mins (reference value: 13.64 =/- 2.55 mg); assay type: functional; details: time 3 day
[12] = system: RAW264.7; test: Inhibition of LPS induced NO production in mouse RAW264.7 cells at 10 uM in the presence of 500 ng/mL LPS measured after 24 hrs by Griess reagent based assay relative to control; assay type: functional
[13] = biological target: T2, Prostaglandin G/H synthase 1 (Ovis aries); test: Inhibition of ovine COX-1 assessed as production of PGE2 using arachidonic acid as a substrate preincubated for 60 mins at 10 uM followed by substrate addition and measured after 2 mins by ELISA analysis relative to control
[14] = system: RAW264.7; test: Inhibition of LPS induced NO production in mouse RAW264.7 cells at 0.01 uM in the presence of 500 ng/mL LPS measured after 24 hrs by Griess reagent based assay relative to control; assay type: functional
[15] = biological target: T3, Prostaglandin G/H synthase 2 (Homo sapiens, UniProt P35354); test: Inhibition of human recombinant COX-2 assessed as production of PGE2 using arachidonic acid as a substrate preincubated for 60 mins followed by substrate addition and measured after 2 mins by ELISA analysis
T3 sequence (P35354 whole entry): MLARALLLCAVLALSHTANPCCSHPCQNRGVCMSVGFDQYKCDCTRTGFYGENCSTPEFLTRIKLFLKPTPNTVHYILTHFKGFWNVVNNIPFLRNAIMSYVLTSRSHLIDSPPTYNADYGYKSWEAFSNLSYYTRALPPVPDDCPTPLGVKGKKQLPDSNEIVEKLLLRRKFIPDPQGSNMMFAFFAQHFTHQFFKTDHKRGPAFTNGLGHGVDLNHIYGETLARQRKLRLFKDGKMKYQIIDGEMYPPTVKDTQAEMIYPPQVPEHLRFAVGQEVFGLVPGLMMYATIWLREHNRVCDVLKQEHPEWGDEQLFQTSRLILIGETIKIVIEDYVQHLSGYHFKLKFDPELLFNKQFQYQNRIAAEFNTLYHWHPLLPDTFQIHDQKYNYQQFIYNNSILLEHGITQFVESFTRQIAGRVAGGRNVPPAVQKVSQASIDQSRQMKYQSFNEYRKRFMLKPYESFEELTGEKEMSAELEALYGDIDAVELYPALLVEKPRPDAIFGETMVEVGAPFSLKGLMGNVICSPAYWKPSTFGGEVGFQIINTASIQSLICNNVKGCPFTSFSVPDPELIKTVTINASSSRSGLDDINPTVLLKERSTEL

[16] = system: RAW264.7; test: Inhibition of LPS induced NO production in mouse RAW264.7 cells at 0.1 uM in the presence of 500 ng/mL LPS measured after 24 hrs by Griess reagent based assay relative to control; assay type: functional
[17] = biological target: T2, Prostaglandin G/H synthase 1 (Ovis aries); test: Inhibition of ovine COX-1 assessed as production of PGE2 using arachidonic acid as a substrate preincubated for 60 mins at 1 uM followed by substrate addition and measured after 2 mins by ELISA analysis relative to control
[18] = Solubility of the compound in water; assay type: physicochemical; details: buffer
[19] = Acute oral toxicity in female kunming mouse assessed as effect on liver histopathology at 2000 mg/kg measured once daily for 14 days; assay type: organism-based; details: in vivo, 336 h, time 14 day
[20] = system: RAW264.7; test: Cytotoxicity against mouse RAW 264.7 cells assessed as decreased cell viability at 0.01 to 10 uM measured after 18 hrs by MTT assay; assay type: cell-based; details: raw264.7, 18 h, dose 0.01-10 µM
[21] = Acute oral toxicity in female kunming mouse assessed as effect on kidney histopathology at 2000 mg/kg measured once daily for 14 days; assay type: organism-based; details: in vivo, 336 h, time 14 day
[22] = Acute oral toxicity in female kunming mouse assessed as survival at 2000 mg/kg measured once daily for 14 days; assay type: organism-based; details: in vivo, 336 h, time 14 day
[23] = system: RAW264.7; test: Cytotoxicity against mouse RAW 264.7 cells assessed as decreased cell viability at 100 uM measured after 18 hrs by MTT assay; assay type: cell-based; details: raw264.7, 18 h

Row | Compound | Activity [1] | inhibition at 1 µM [2] [%] | inhibition in vivo at 30 mg/kg [3] [%] | Ratio [4] | IC50 [5] [nM] | inhibition [6] [%] | inhibition at 100 µM [7] [%] | inhibition [8] [%] | LD50 at 336 h [9] [mg/kg] | inhibition in vivo at 30 mg/kg [10] [%] | Activity [11] [mg] | inhibition at 10 µM [12] [%] | inhibition [13] [%] | inhibition at 0.01 µM [14] [%] | IC50 [15] [nM] | inhibition at 0.1 µM [16] [%] | inhibition [17] [%] | solubility [18] | Activity [19] | Activity [20] | further results
1 | Cc1ccc(-c2cc(C)n(S(=O)(=O)Oc3ccccc3)n2)cc1 | 14.38 | 19.3 | 15.2 | 455 | 500 | 34 | 31.6 | 70 | > 2000 | 50.7 | 11.57 | 21.1 | 72 | 10.5 | 1.1 | 18.1 | 55 | Insoluble |  |  | 
2 | Cc1ccc(-c2cc(C)n(S(=O)(=O)Oc3ccccc3Cl)n2)cc1 | 15 | 23.8 | 27 | > 189 | > 100000 | 20 | 29.4 | 33 | > 2000 | 48.5 | 9.96 | 22 | 26 | 12.6 | 530 | 23.6 | 24 | Insoluble | Non-Toxic | 80% | Activity [21]: Non-Toxic; Activity [22]: Non-Toxic; Activity [23]: 80%
3 | Cc1ccc(-c2cc(C)n(S(=O)(=O)Oc3ccc(I)cc3)n2)cc1 | 24.13 |  | 27 | 10500 | 96600 | 17 |  | 48 |  | 17.2 | 9.96 |  | 41 |  | 9.2 |  | 35 | Insoluble | Non-Toxic | Non-Toxic | Activity [21]: Non-Toxic; Activity [22]: Non-Toxic; Activity [23]: 40%
4 | Cc1ccc(-c2cc(C(F)(F)F)nn2-c2ccc(S(N)(=O)=O)cc2)cc1 [CELECOXIB] | 18.63 | 16.5 | 28.2 |  |  |  | 50.2 |  |  |  | 9.79 | 14.8 |  | 16.5 |  | 19.6 |  | Insoluble |  | 80% | 
